According to the NIST ThermoML archive (doi:10.1016/j.tca.2007.01.009):
Numbers after ± are expanded uncertainties.

Test: wn = mass fraction of the nth substance listed
Conditions: 101 kPa, Crystal, Hot wire method

Molecule `[Pb]` [lead] + [Cd] has a thermal conductivity (323.15 K, w2 = 0.033) of 38.36 ± 0.58 W/m/K, a thermal conductivity (323.15 K, w2 = 0.174) of 62.77 ± 0.94 W/m/K and a thermal conductivity (323.15 K, w2 = 0.9975) of 105.18 ± 1.6 W/m/K. For the same molecule, the thermal conductivity (373.15 K, w2 = 0.033) was 35.94 ± 0.54 W/m/K, the thermal conductivity (373.15 K, w2 = 0.174) was 53.14 ± 0.8 W/m/K and the thermal conductivity (373.15 K, w2 = 0.9975) was 86.06 ± 1.3 W/m/K. The thermal conductivity (423.15 K, w2 = 0.033) was 30.79 ± 0.46 W/m/K, the thermal conductivity (423.15 K, w2 = 0.174) was 44.49 ± 0.67 W/m/K and the thermal conductivity (423.15 K, w2 = 0.9975) was 71.06 ± 1.1 W/m/K. The thermal conductivity (473.15 K, w2 = 0.033) was 30.37 ± 0.46 W/m/K, the thermal conductivity (473.15 K, w2 = 0.174) was 39.96 ± 0.6 W/m/K and the thermal conductivity (473.15 K, w2 = 0.9975) was 69.38 ± 1 W/m/K. The thermal conductivity (513.15 K, w2 = 0.033) was 27.68 ± 0.42 W/m/K, the thermal conductivity (513.15 K, w2 = 0.174) was 37.25 ± 0.56 W/m/K and the thermal conductivity (513.15 K, w2 = 0.9975) was 61.22 ± 0.92 W/m/K.

Molecule `[Zn]` [zinc] + [Sn] has a thermal conductivity (323.15 K, w1 = 0.01) of 78.49 ± 1.2 W/m/K, a thermal conductivity (323.15 K, w1 = 0.089) of 86.39 ± 1.3 W/m/K and a thermal conductivity (373.1 K, w1 = 0.01) of 73.59 ± 1.1 W/m/K. The thermal conductivity (373.1 K, w1 = 0.089) was 81.42 ± 1.2 W/m/K, the thermal conductivity (423.15 K, w1 = 0.01) was 66.89 ± 1 W/m/K and the thermal conductivity (423.15 K, w1 = 0.089) was 79.04 ± 1.2 W/m/K. It also gave a thermal conductivity (463.15 K, w1 = 0.01) of 71.08 ± 1.1 W/m/K and a thermal conductivity (463.15 K, w1 = 0.089) of 75.42 ± 1.1 W/m/K.
